We go through six compounds from BindingDB's records for doi:10.1007/s00213-002-1073-7 (WestfÄLische Wilhelms-Universit&Auml, 2002).

Among the targets are D(2) dopamine receptor (Rattus norvegicus, UniProt P61169); D(1A) dopamine receptor (Homo sapiens, UniProt P21728); D(1B) dopamine receptor (Homo sapiens, UniProt P21918).
The target in assay [1] is Beta-1 adrenergic receptor (Rattus norvegicus, UniProt P18090).
Assay [2] deals with 5-hydroxytryptamine receptor 5A (Homo sapiens, UniProt P47898).
Assay [3] addresses T1, Muscarinic acetylcholine receptor M1 (Homo sapiens, UniProt P11229).
T1 sequence (P11229 whole entry): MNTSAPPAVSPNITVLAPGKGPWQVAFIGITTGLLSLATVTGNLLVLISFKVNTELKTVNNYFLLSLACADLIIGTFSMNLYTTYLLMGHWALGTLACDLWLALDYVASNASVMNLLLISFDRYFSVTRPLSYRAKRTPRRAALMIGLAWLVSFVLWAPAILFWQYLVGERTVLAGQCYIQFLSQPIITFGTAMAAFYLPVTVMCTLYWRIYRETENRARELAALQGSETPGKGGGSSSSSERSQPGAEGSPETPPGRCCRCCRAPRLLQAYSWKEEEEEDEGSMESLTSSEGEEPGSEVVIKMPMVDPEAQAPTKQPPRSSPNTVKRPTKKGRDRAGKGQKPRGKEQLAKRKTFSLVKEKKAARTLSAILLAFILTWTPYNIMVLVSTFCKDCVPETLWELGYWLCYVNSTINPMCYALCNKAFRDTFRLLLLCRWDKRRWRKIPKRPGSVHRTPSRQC

The target of assay [4] is T2, Alpha-1B adrenergic receptor (Homo sapiens, UniProt P35368).
T2 sequence (P35368 whole entry): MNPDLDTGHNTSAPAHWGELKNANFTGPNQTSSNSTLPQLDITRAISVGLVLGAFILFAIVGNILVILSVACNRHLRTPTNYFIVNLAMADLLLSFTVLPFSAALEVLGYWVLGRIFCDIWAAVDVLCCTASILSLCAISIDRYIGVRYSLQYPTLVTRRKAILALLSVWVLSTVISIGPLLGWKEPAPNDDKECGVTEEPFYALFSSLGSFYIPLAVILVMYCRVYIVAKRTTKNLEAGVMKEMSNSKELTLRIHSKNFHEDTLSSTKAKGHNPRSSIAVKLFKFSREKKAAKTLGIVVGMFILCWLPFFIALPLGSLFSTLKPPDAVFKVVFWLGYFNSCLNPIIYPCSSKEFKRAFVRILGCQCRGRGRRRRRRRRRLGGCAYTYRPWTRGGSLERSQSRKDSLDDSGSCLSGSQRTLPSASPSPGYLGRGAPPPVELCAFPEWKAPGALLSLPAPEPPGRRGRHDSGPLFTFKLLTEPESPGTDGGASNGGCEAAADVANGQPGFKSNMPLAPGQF

Another assay concerns the target T3, Vasopressin V1b receptor (Homo sapiens, UniProt P47901).
T3 sequence (P47901 whole entry): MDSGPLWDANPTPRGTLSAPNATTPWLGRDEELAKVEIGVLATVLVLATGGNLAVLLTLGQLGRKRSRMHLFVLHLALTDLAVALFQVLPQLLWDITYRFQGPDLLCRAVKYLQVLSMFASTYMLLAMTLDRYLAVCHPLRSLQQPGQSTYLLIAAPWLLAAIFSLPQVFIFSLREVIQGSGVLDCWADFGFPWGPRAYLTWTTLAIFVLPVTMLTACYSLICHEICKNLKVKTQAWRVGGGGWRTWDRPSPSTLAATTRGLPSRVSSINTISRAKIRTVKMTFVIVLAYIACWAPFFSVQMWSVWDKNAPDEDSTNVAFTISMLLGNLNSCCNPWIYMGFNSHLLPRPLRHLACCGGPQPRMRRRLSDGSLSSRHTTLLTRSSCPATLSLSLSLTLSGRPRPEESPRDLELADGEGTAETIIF

A further assay addresses T4, D(4) dopamine receptor (Rattus norvegicus, UniProt P30729).
T4 sequence (P30729 whole entry): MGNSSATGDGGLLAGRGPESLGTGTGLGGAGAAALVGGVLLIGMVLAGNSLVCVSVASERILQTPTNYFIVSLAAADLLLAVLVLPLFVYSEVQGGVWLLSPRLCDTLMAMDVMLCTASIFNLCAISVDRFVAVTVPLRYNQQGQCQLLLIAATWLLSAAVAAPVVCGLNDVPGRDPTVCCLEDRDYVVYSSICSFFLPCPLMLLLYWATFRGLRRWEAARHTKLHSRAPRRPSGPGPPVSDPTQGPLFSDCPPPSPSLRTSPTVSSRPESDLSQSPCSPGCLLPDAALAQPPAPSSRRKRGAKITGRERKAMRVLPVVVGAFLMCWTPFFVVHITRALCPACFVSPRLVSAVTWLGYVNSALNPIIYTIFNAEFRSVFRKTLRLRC

Assay [5] addresses T5, Muscarinic acetylcholine receptor M5 (Homo sapiens, UniProt P08912).
T5 sequence (P08912 whole entry): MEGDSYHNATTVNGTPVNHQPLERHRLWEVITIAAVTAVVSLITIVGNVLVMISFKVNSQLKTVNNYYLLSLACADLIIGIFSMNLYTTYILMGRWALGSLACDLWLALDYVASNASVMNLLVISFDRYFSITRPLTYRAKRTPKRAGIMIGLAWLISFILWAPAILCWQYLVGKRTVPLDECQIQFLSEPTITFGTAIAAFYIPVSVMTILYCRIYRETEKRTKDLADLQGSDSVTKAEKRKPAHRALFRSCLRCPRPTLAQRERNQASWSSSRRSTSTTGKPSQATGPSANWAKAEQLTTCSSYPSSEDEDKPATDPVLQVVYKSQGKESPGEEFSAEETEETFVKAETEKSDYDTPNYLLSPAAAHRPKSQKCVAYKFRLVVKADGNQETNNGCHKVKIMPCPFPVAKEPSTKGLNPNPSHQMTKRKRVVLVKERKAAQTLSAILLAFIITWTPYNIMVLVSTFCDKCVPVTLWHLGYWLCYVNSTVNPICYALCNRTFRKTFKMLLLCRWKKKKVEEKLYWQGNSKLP

For assay [6], the target named is Beta-2 adrenergic receptor (Rattus norvegicus, UniProt P10608).

A value given as a limit tells only on which side of the number the result lay.

Chain of D(1B) dopamine receptor (P21918 whole entry): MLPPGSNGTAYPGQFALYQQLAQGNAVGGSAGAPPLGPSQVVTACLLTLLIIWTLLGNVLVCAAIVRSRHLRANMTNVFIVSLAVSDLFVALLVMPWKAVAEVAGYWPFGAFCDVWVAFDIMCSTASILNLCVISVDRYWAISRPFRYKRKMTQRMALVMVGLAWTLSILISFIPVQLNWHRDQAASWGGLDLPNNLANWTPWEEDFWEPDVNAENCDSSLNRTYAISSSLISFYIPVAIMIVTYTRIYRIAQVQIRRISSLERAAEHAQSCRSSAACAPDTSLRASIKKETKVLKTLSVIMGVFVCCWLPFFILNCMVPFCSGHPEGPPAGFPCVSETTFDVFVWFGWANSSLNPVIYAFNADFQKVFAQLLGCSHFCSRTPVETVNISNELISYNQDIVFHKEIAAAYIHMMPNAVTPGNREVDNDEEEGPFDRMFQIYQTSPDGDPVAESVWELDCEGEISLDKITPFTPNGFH
Chain of Beta-2 adrenergic receptor (P10608 whole entry): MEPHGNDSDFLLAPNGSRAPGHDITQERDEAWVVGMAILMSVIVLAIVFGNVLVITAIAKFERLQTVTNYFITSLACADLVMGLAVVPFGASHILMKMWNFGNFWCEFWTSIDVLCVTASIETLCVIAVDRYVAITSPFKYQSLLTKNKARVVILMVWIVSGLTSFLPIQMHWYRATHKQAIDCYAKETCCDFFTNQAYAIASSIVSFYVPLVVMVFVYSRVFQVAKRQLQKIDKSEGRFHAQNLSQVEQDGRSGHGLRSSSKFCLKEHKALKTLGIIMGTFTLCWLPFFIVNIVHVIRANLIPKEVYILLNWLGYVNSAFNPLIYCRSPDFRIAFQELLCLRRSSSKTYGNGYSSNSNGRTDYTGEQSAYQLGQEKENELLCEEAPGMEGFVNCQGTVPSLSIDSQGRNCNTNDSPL
Chain of D(2) dopamine receptor (P61169 whole entry): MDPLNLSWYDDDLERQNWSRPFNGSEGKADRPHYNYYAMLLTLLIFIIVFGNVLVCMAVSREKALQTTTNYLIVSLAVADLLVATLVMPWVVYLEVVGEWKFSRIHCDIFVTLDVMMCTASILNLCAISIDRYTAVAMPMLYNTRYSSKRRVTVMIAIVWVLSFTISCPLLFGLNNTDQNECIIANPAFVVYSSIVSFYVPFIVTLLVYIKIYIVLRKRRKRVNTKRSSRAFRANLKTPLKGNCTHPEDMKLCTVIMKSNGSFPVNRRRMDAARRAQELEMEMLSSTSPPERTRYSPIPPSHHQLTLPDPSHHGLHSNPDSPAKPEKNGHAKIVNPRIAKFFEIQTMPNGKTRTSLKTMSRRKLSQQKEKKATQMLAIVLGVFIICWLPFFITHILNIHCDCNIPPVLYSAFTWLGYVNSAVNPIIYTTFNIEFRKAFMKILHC
Chain of Beta-1 adrenergic receptor (P18090 whole entry): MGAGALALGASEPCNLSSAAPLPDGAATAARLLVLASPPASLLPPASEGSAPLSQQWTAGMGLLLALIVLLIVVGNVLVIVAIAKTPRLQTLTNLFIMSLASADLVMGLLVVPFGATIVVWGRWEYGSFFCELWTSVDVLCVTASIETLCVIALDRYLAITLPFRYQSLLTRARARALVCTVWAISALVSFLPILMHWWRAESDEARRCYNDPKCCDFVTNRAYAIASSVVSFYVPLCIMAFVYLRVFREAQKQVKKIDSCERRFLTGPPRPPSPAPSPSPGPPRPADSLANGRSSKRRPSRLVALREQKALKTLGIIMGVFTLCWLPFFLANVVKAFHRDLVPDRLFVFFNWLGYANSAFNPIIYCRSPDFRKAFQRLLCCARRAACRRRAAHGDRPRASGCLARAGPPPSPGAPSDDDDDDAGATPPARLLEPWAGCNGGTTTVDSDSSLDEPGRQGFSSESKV
Chain of 5-hydroxytryptamine receptor 5A (P47898 whole entry): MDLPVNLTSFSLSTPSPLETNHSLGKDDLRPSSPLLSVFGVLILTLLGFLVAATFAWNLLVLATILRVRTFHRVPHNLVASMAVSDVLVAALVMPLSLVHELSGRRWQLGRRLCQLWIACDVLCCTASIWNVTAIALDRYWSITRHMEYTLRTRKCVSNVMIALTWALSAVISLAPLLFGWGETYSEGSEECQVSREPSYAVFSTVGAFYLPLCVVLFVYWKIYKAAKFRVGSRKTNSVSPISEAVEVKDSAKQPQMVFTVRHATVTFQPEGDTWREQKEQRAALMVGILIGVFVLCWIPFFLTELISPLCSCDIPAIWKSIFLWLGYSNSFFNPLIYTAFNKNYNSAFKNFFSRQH
Chain of D(1A) dopamine receptor (P21728 whole entry): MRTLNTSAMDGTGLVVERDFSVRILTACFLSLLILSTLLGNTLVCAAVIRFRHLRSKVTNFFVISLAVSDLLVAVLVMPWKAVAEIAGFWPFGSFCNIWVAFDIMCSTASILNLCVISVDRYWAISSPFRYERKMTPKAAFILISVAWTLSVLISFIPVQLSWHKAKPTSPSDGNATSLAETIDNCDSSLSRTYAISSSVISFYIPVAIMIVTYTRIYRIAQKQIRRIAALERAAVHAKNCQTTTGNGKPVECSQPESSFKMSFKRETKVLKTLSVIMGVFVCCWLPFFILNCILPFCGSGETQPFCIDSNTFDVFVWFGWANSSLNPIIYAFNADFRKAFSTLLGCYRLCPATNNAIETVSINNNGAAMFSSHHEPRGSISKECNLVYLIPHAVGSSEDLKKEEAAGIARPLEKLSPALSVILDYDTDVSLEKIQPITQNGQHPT

By Ki is commonly meant the equilibrium dissociation constant of an inhibitor or competing ligand from its target. Low values mean tighter binding, high ones weaker binding. `O=c1cc(O)cc2oc(-c3ccc(O)c(-c4c(O)cc(O)c5c(=O)cc(-c6ccc(O)cc6)oc45)c3)cc(O)c1-2`: the Ki (at D(2) dopamine receptor; in assay [1]; on D(1A) dopamine receptor; in [2]; at D(1B) dopamine receptor; in assay [3]) was over 10 µM each time. Further, the Ki (in assay [4]; at Vasopressin V1b receptor; on D(4) dopamine receptor; in [5]; in assay [6]) was over 10 µM in each case.

Take `CC(C)=CCC[C@]1(C)[C@@H](CC=C(C)C)C[C@]2(CC=C(C)C)C(=O)C(CC=C(C)C)C(=O)[C@]1(C(=O)C(C)C)C2=O` (stereo partly specified): the Ki was over 10 µM on D(2) dopamine receptor; over 10 µM in [1]; 0.596 µM on D(1A) dopamine receptor; over 10 µM in [2]; over 10 µM on D(1B) dopamine receptor; over 10 µM in [3]. Moreover, the inhibition constant Ki (in assay [4]; on Vasopressin V1b receptor; at D(4) dopamine receptor; in assay [5]; in assay [6]) was over 10 µM in each case.

On to `C[C@@H]1O[C@@H](Oc2c(-c3ccc(O)c(O)c3)oc3cc(O)cc(=O)c-3c2O)[C@H](O)[C@H](O)[C@H]1O`, for which the Ki (at D(2) dopamine receptor; in assay [1]; at D(1A) dopamine receptor; in assay [2]; at D(1B) dopamine receptor; in assay [3]) was over 10 µM each time. The Ki (in [4]; on Vasopressin V1b receptor; on D(4) dopamine receptor; in [5]; in [6]) was over 10 µM throughout.

Take `O=c1c(O)c(-c2ccc(O)c(O)c2)oc2cc(O)cc(O)c12` [2-(3,4-dihydroxyphenyl)-3,5,7-trihydroxy-chromone;hydrate]: the Ki (at D(2) dopamine receptor; in assay [1]; at D(1A) dopamine receptor; in assay [2]; at D(1B) dopamine receptor; in assay [3]) was over 10 µM in each case. In addition, the Ki in assay [4] is over 10 µM; on Vasopressin V1b receptor, over 10 µM; at D(4) dopamine receptor, 7.85 µM; in [5], over 10 µM; in assay [6], over 10 µM.

Regarding `C[C@@H]1O[C@@H](OC[C@H]2O[C@@H](Oc3c(-c4ccc(O)c(O)c4)oc4cc(O)cc(O)c4c3=O)[C@H](O)[C@@H](O)[C@@H]2O)[C@H](O)[C@H](O)[C@H]1O` [3-Rhamnoglucosylquercetin], the inhibitory constant (Ki) (at D(2) dopamine receptor; in assay [1]; at D(1A) dopamine receptor; in assay [2]; on D(1B) dopamine receptor; in [3]) was over 10 µM each time. In addition, the Ki in assay [4] is over 10 µM; on Vasopressin V1b receptor, over 10 µM; at D(4) dopamine receptor, over 10 µM; in [5], 0.0351 µM; in assay [6] it was over 10 µM.

Take `O=c1cc(O)cc2oc(-c3ccc(O)c(O)c3)c(OC3OC(CO)C(O)C(O)C3O)c(O)c1-2` (stereo unspecified) [NSC_5318390]: the Ki (on D(2) dopamine receptor; in [1]; on D(1A) dopamine receptor; in [2]; at D(1B) dopamine receptor; in [3]) was over 10 µM in each case. Moreover, the Ki (in [4]; at Vasopressin V1b receptor; on D(4) dopamine receptor; in assay [5]; in assay [6]) was over 10 µM throughout.
